Data from patent publication US9532988B2, “Pharmaceutical composition comprising a TRPA1 antagonist and an analgesic agent” (GLENMARK PHARMACEUTICALS S.A., priority 2013, dated 2017).

How the values were obtained:
[1] = tested on: MIA-osteoarthritis induced mechanical punctate allodynia in male SD rats; assay: MIA-induced mechanical punctate allodynia (dynamic von Frey); assay type: in vivo, rat (Sprague-Dawley); conditions: 0.5-4 h post-dose, Example 19, Table 22, FIG. 25
Description: MIA was dissolved in 0.9% sterile saline and administered using a 26½ gauge needle. Contralateral knees were injected intra-articularly with 50 μl of 0.9% sterile saline. On the day of the experiment (20 h after MIA injection), rats were evaluated for pre-dose mechanical punctate allodynia to assess the effect of MIA. After regrouping the rats after randomization, the pre- & post-dose mechanical allodynia was assessed for both hind paws. […] The % reversal of punctate allodynia was calculated as per standard procedure. Animals were weighed and grouped as described in Table 22.

[2] = tested on: Streptozotocin (STZ)-induced diabetic peripheral neuropathic hyperalgesia in male SD rats; assay: Streptozotocin-induced diabetic peripheral neuropathic hyperalgesia; assay type: in vivo, rat (Sprague-Dawley); conditions: Compound III 0.04 mg/kg p.o. alone; 0.5-4 h post-dose; Example 18, Table 21, FIG. 24
Description: Streptozotocin (STZ)-induced neuropathic hyperalgesia in rats is a model to screen potential therapeutics for diabetic painful neuropathy in human patients. Streptozotocin was dissolved in freshly prepared cold citrate buffer (0.1 M, pH—4.4). Diabetes was induced in overnight fasted male SD rats (weighing 250-300 g) by a single intraperitoneal injection of Streptozotocin (Sigma, 55 mg/kg, i.p). […] On the day of the experiment (13th day after STZ injection) rats were assessed for mechanical hyperalgesia using Randall-Sellito paw pressure analgesymeter. Animals were weighed and grouped as described in Table 9.
Rats were orally dosed with vehicle, duloxetine hydrochloride, Compound I potassium salt and combination (Duloxetine+Compound I).
Streptozotocin (STZ)-induced neuropathic hyperalgesia in rats is a model to screen potential therapeutics for diabetic painful neuropathy in human patients. Streptozotocin was dissolved in freshly prepared cold citrate buffer (0.1 M, pH —4.4). Diabetes was induced in overnight fasted male Sprague Dawley rats by a single intraperitoneal injection of Streptozotocin (Sigma, 55 mg/kg, i.p). […] On the day of the experiment (13th day after STZ injection) rats were assessed for mechanical hyperalgesia using Randall-Sellito paw pressure analgesymeter.
Rats were orally dosed with vehicle, different doses of duloxetine hydrochloride, Compound II disodium salt and combinations (duloxetine+Compound II—simultaneously). The post-dose paw withdrawal thresholds were measured at 1, 2 & 4 h after oral administration. […] Animals were weighed and grouped as described in Table 16.
Rats were orally dosed with vehicle, different doses of duloxetine hydrochloride, Compound III disodium salt and combinations (duloxetine+Compound III—simultaneously). […] Animals were weighed and grouped as described in Table 21.

[3] = tested on: FCA-induced thermal hyperalgesia in male SD rats; assay: FCA-induced thermal hyperalgesia (Hargreaves apparatus); assay type: in vivo, rat (Sprague-Dawley); conditions: Compound III 0.039 mg/kg p.o. alone; 0.5-4 h post-dose; Example 16, Table 19, FIG. 22
Description: The % reversal of mechanical/thermal hyperalgesia was calculated.

[4] = tested on: Freund's Complete Adjuvant (FCA)-induced inflammatory mechanical hyperalgesia in male SD rats; assay: FCA-induced inflammatory mechanical hyperalgesia (Randall-Sellitto paw pressure);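 note: left hind paw withdrawal threshold (g) to rising pressure on an analgesymeter, FCA injected intraplantar 24 h earlier, thresholds taken before and 0.5, 1, 2 and 4 h after oral dosing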
Description: Materials: FCA containing 1 mg/ml of heat killed and dried Mycobacterium tuberculosis (H37RA strain) emulsified in mineral oil and mannide mono-oleate; Male SD rats weighing 170-220 g; Paw Pressure Analgesymeter (37215, Ugo Basile, Comerio, Italy); Compound I potassium; and Diclofenac sodium
Naïve withdrawal thresholds of the left hind paw to an increasing pressure (g) stimulus were measured in rats using the analgesymeter. FCA was injected (30 μl) into the plantar region of left paw of rats to induce the inflammatory hyperalgesia. Mechanical hyperalgesia (24 h after FCA injection) was assessed by measuring hind paw withdrawal thresholds.
The post-dose paw withdrawal thresholds were measured at 0.5, 1, 2 & 4 h after oral administration. The percentage (%) reversal of mechanical hyperalgesia was calculated as per standard procedure.
Naïve withdrawal thresholds of the left hind paw to an increasing pressure (g) stimulus were measured in rats using the analgesymeter. Freund's Complete Adjuvant (FCA) was injected (30 μl) into the plantar region of left paw of rats to induce the inflammatory hyperalgesia. Mechanical hyperalgesia (24 h after FCA injection) was assessed both pre- & post-dosing of drugs by measuring hind paw withdrawal thresholds. […] The post-dose paw withdrawal thresholds were measured at 0.5, 1, 2 & 4 h after oral administration. The % reversal of mechanical hyperalgesia was calculated.
Naïve withdrawal thresholds of the left hind paw to an increasing pressure (g) stimulus were measured in rats using the analgesymeter.

[5] = tested on: Monosodium Iodo Acetate (MIA)-osteoarthritis induced weight bearing deficit in male SD rats; assay: MIA-osteoarthritis induced weight bearing deficit (incapacitance meter); assay type: in vivo, rat (Sprague-Dawley); conditions: naproxen 10 mg/kg p.o. alone; 0.5-4 h post-dose; Example 3, Table 5, FIG. 5
Description: After recording basal weight borne by both hind limbs (naïve) using the incapacitance meter (IITC Inc), rats were briefly anaesthetized with 2% isoflurane and O2 mixture and given intraarticular (i.a.) injection of MIA (5 mg per rat in […]) through the intrapatellar ligament of the left knee (Combe et al., 2004). MIA was dissolved in 0.9% sterile saline and administered using a 26½ gauge needle. Contralateral knees were injected intra-articularly with 50 μl of 0.9% sterile saline. Weight bearing deficit in ipsilateral paw was assessed 20 h post MIA injection by measuring weight borne by both hind limbs.
On the day of the experiment (20 h after MIA injection), rats were evaluated for pre-dose weight bearing deficit to assess the effect of MIA. After regrouping the rats after randomization, the pre- & post-dose weight bearing deficit, was assessed for both hind limbs. Rats were orally dosed with vehicle, naproxen, compound I potassium salt and combination (Naproxen+Compound I—simultaneously). The effect of compound I, naproxen and their combination, in MIA-osteoarthritis induced weight bearing deficit in male SD rats, was evaluated using Incapacitance meter (IITC Inc.) fitted with a perspex chamber designed so that each hind paw rat rests on separate transducer pads to record animal's weight on each paw. […] The % reversal of weight bearing deficit was calculated as per standard procedure. […]

SMILES	maximal % reversal of mechanical punctate allodynia ([1]; Compound III 0.132 mg/kg p.o. alone) [%]	maximal % reversal of hyperalgesia [2] [%]	maximal % reversal of thermal hyperalgesia [3] [%]	maximal % reversal of mechanical hyperalgesia ([4]; Compound III 0.039 mg/kg p.o. alone, Example 16, Table 19, FIG. 21) [%]	maximal % reversal of mechanical hyperalgesia ([4]; Compound III 0.039 mg/kg p.o. alone, Example 17, Table 20, FIG. 23) [%]	maximal % reversal of weight bearing deficit [5] [%]	maximal % reversal of mechanical punctate allodynia ([1]; naproxen 3 mg/kg p.o. alone) [%]	maximal % reversal of hyperalgesia ([4]; naproxen 3 mg/kg p.o. alone, Example 2, Table 3, FIG. 3) [%]	maximal % reversal of hyperalgesia ([4]; naproxen 3 mg/kg p.o. alone, Example 10, Table 13, FIG. 14) [%]	maximal % reversal of mechanical hyperalgesia ([4]; naproxen 3 mg/kg p.o. alone, Example 17, Table 20, FIG. 23) [%]	maximal % reversal of hyperalgesia ([4]; naproxen 5 mg/kg p.o. alone, Example 2, Table 4, FIG. 4) [%]
Cn1c(=O)c2c(CC(=O)N=c3scc(-c4ccc(C(F)(F)F)c(F)c4F)n3COP(=O)(O)O)nsc2n(C)c1=O [Compound III, [4-[2,3-difluoro-4-(trifluoromethyl)phenyl]-2-{[(5,7-dimethyl-4,6-dioxo-4,5,6,7-tetrahydro[1,2]thiazolo[5,4-d]pyrimidin-3-yl)acetyl]imino}-1,3-thiazol-3(2H)-yl]methyl dihydrogen phosphate]	19	19	22	17	17						
COc1ccc2cc([C@H](C)C(=O)O)ccc2c1 [naproxen]						39	18	23	18	17	32
